{"source": "patent US7498023B2", "about": "“Blockade of T cell migration into epithelial GVHD target tissues as an approach to achieving anti-tumor effects against lymphohematopoietic malignancies without GVHD” (The General Hospital Corporation, priority 2000, dated 2009)", "key": {"[1]": {"settings": "Cy 50 mg/kg daily x4 with ATG, thymic irradiation, BMT; five subjects", "source_text": "Intravenous cyclosporine (CYA) was given beginning on day −1 with conversion to p.o. CYA when tolerated. Donor leukocytes (DLI) were given on days +35, (10^7/kg CD3+ cells) and +56 (5×10^7/kg CD3+ cells) if no GVHD was present. Median subject age was 30 (range 20-45) years. All subjects had disease progression during salvage chemotherapy or radiation therapy. […] Chimerism analyses of weekly peripheral blood samples and pre-BMT, day +28, and day +100 bone marrow aspirate samples have been performed by variable number of tandem repeat sequence (VNTR) analysis (HLA matched BMT) or flow cytometry (HLA mismatched BMT)."}, "[2]": {"settings": "cited from earlier work"}}}
{"smiles": "O=P1(N(CCCl)CCCl)NCCCO1", "note": "(centres unmarked) [cyclophosphamide]", "values": [{"measurement": "toxicities observed", "setting": "[1]", "value": "reversible Cy cardiotoxicity (n=1)"}, {"measurement": "subjects developing a diffuse maculopapular rash", "setting": "[2]; 24-72 hours following cyclophosphamide", "value": "10-20%"}, {"measurement": "subjects with some hematuria", "setting": "[2]; at this dose level (50 mg/kg x4)", "value": "Approximately 50%"}, {"measurement": "incidence of hemorrhagic cystitis", "setting": "[2]; cyclophosphamide 50 mg/kg on days -6, -5, -4, -3", "value": 20, "unit": "%"}, {"measurement": "total dose at which fatal cardiac failure due to hemorrhagic necrosis occurs", "setting": "[2]; total dose (7.6 grams/m^2)", "value": "≥ 200", "unit": "mg/kg"}]}
